From PMC9025269, “Synthesis and Anti-Hepatitis B Activities of 3′-Fluoro-2′-Substituted Apionucleosides” (Molecules, 2022) come the findings set out here.

Bounds are passed on as bounds.

This experiment deals with T1, human DNA polymerase γ (Homo sapiens, UniProt P54098).
T1 construct: purchased Abcam 196066
T1 sequence (P54098 1-1239): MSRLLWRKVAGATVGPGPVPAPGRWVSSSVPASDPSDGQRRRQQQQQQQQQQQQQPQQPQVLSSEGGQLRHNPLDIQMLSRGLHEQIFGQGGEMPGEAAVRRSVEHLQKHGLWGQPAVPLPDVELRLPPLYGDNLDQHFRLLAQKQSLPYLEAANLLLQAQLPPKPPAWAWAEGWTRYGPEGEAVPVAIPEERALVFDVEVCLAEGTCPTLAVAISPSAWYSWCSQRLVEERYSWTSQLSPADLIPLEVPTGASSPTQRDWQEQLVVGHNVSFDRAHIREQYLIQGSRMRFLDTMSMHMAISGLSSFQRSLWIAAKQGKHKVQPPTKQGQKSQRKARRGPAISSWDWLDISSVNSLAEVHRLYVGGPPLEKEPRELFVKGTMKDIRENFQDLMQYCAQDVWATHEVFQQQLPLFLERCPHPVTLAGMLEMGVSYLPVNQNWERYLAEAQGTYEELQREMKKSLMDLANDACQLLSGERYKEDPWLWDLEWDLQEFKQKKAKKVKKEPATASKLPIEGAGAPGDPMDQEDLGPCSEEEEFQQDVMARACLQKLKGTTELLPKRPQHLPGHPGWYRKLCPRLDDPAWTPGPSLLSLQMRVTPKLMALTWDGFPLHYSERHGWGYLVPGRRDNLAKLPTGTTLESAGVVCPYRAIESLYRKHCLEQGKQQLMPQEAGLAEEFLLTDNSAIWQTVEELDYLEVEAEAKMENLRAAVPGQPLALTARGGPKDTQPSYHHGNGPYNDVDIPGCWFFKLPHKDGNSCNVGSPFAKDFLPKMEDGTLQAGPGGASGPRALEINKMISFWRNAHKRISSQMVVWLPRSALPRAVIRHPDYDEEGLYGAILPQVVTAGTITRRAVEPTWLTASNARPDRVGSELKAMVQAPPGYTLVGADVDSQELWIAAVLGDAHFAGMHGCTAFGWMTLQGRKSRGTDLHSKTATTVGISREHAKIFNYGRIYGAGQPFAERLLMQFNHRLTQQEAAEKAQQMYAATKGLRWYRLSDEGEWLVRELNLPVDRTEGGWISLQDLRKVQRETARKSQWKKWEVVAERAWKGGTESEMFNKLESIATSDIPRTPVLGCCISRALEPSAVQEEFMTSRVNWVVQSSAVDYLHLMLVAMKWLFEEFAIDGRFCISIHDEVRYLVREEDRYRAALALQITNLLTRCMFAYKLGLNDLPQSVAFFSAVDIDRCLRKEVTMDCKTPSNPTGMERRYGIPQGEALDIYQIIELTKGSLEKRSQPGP
The experiment is described as follows: Human DNA polymerase γ DdDp assay. In kind it is biochemical. The method, then:
The DNA-dependent DNA polymerization (DdDp) activity of human DNA polymerases α, β, and γ was measured as described previously. Briefly, the assays were run with 5 U/mL recombinant DNA polymerase α (CHIMERx, cat#1075-1), 0.5 U/mL recombinant DNA polymerase β (CHIMERx, cat#1077-1), or 0.1 μg/mL recombinant DNA polymerase γ (Abcam, cat#196066), 62 μg/mL activated calf thymus DNA, 50 mM Tris-HCl (pH 8.0), 60 mM KCl, 5 mM MgCl2, 4 mM dithiothreitol (DTT), 0.1 mg/mL BSA, 2 μM dCTP, 2 μM dATP, 2 μM dGTP, 0.05 μCi/μL ^3H-dTTP (Perkin Elmer) and compounds at various concentrations at 30 °C for 2 h. The 50 μL reactions were processed following the same filter plate method as described above for HIV-1 RT. Acid-precipitated tritiated DNA products retained on the filters were detected by a Trilux MicroBeta scintillation reader (Perkin Elmer). All data were analyzed as described above for HIV-1 RT.

For orientation: IC50 means the concentration needed to halve the response being measured. Read a high IC50 as weaker potency.

Compound `Nc1ncnc2c1ncn2[C@@H]1OC[C@](F)(COP(=O)(O)OP(=O)(O)OP(=O)(O)O)[C@H]1CO` [Compound 38, ((3S,4S,5R)-5-(6-Amino-9H-purin-9-yl)-3-fluoro-4-(hydroxymethyl)tetrahydrofuran-3-yl)methyl triphosphate] showed an IC50 greater than 100 µM.
